{
  "source": "patent US20250296953A1",
  "about": "“3,4-THIAZOLO-STEROIDS AND METHODS OF MAKING AND USING THE SAME” (Arkansas State University - Jonesboro, priority 2018, published 2025)",
  "key": {"gliosarcoma (SF-539)": {"test_system": "gliosarcoma (SF-539)", "test": "NCI 60 five dose screen"}, "[1]": {"test_system": "60 different human tumor cell lines", "conditions": "for GI50 / TGI: five dose"}, "[2]": {"conditions": "A549/ATCC (Non-small Cell Lung Cancer)"}, "[3]": {"conditions": "EKVX (Non-small Cell Lung Cancer)"}, "[4]": {"conditions": "HOP-62 (Non-small Cell Lung Cancer)"}, "[5]": {"conditions": "HOP-92 (Non-small Cell Lung Cancer)"}, "[6]": {"conditions": "MDA-MB-231/ATCC (Breast Cancer)"}, "[7]": {"conditions": "NCI-H23 (Non-small Cell Lung Cancer)"}, "[8]": {"conditions": "NCI-H226 (Non-small Cell Lung Cancer)"}, "[9]": {"conditions": "NCI-H322M (Non-small Cell Lung Cancer)"}, "[10]": {"conditions": "NCI-H460 (Non-small Cell Lung Cancer)"}, "[11]": {"conditions": "NCI-H522 (Non-small Cell Lung Cancer)"}},
  "note": "Like-named read-outs stand apart in the source and are kept apart here.",
  "data": [
    {"substance": "(1S,2R,13R,14S,18S)-7-(3-fluoroanilino)-2,18-dimethyl-6-thia-8-azapentacyclo[11.7.0.02,10.05,9.014,18]icosa-5(9),7,10-trien-17-one [IIa.8]", "values": [
      {"measurement": "GI50", "setting": "gliosarcoma (SF-539); SF-539 (CNS Cancer), five dose", "result": 1340, "unit": "nM"},
      {"measurement": "TGI", "setting": "gliosarcoma (SF-539); SF-539 (CNS Cancer), five dose", "result": "2.94E−6"},
      {"measurement": "GI50", "setting": "gliosarcoma (SF-539); gliosarcoma SF-539", "result": 1340, "unit": "nM"},
      {"measurement": "CC50", "setting": "gliosarcoma (SF-539); read-out: LC50, SF-539 (CNS Cancer), five dose", "result": 6450, "unit": "nM"},
      {"measurement": "CC50", "setting": "[1]", "result": "> 100000", "unit": "nM"},
      {"measurement": "GI50", "setting": "[1]; 786-0 (Renal Cancer)", "result": 1430, "unit": "nM"},
      {"measurement": "TGI", "setting": "[1]; 786-0 (Renal Cancer)", "result": "2.83E−6"},
      {"measurement": "GI50", "setting": "[1]; A498 (Renal Cancer)", "result": 2160, "unit": "nM"},
      {"measurement": "TGI", "setting": "[1]; A498 (Renal Cancer)", "result": "6.77E−6"},
      {"measurement": "GI50", "setting": "[1]; [2]", "result": 2580, "unit": "nM"},
      {"measurement": "TGI", "setting": "[1]; [2]", "result": "7.50E−6"},
      {"measurement": "GI50", "setting": "[1]; ACHN (Renal Cancer)", "result": 1780, "unit": "nM"},
      {"measurement": "TGI", "setting": "[1]; ACHN (Renal Cancer)", "result": "3.24E−6"},
      {"measurement": "GI50", "setting": "[1]; BT-549 (Breast Cancer)", "result": 1540, "unit": "nM"},
      {"measurement": "TGI", "setting": "[1]; BT-549 (Breast Cancer)", "result": "3.62E−6"},
      {"measurement": "GI50", "setting": "[1]; CAKI-1 (Renal Cancer)", "result": 1990, "unit": "nM"},
      {"measurement": "TGI", "setting": "[1]; CAKI-1 (Renal Cancer)", "result": "5.73E−6"},
      {"measurement": "GI50", "setting": "[1]; CCRF-CEM (Leukemia)", "result": 1900, "unit": "nM"},
      {"measurement": "TGI", "setting": "[1]; CCRF-CEM (Leukemia)", "result": ">1.00E−4"},
      {"measurement": "GI50", "setting": "[1]; COLO 205 (Colon Cancer)", "result": 2160, "unit": "nM"},
      {"measurement": "TGI", "setting": "[1]; COLO 205 (Colon Cancer)", "result": "4.81E−6"},
      {"measurement": "GI50", "setting": "[1]; DU-145 (Prostate Cancer)", "result": 1930, "unit": "nM"},
      {"measurement": "TGI", "setting": "[1]; DU-145 (Prostate Cancer)", "result": "4.87E−6"},
      {"measurement": "GI50", "setting": "[1]; [3]", "result": 2500, "unit": "nM"},
      {"measurement": "TGI", "setting": "[1]; [3]", "result": "1.85E−5"},
      {"measurement": "GI50", "setting": "[1]; HCC-2998 (Colon Cancer)", "result": 3550, "unit": "nM"},
      {"measurement": "TGI", "setting": "[1]; HCC-2998 (Colon Cancer)", "result": "1.46E−5"},
      {"measurement": "GI50", "setting": "[1]; HCT-15 (Colon Cancer)", "result": 1580, "unit": "nM"},
      {"measurement": "TGI", "setting": "[1]; HCT-15 (Colon Cancer)", "result": "4.08E−6"},
      {"measurement": "GI50", "setting": "[1]; HCT-116 (Colon Cancer)", "result": 1590, "unit": "nM"},
      {"measurement": "TGI", "setting": "[1]; HCT-116 (Colon Cancer)", "result": "3.24E−6"},
      {"measurement": "GI50", "setting": "[1]; HL-60(TB) (Leukemia)", "result": 2730, "unit": "nM"},
      {"measurement": "TGI", "setting": "[1]; HL-60(TB) (Leukemia)", "result": "8.00E−6"},
      {"measurement": "GI50", "setting": "[1]; [4]", "result": 2070, "unit": "nM"},
      {"measurement": "TGI", "setting": "[1]; [4]", "result": "5.34E−6"},
      {"measurement": "GI50", "setting": "[1]; [5]", "result": 2250, "unit": "nM"},
      {"measurement": "TGI", "setting": "[1]; [5]", "result": "4.17E−6"},
      {"measurement": "GI50", "setting": "[1]; HS 578T (Breast Cancer)", "result": 3140, "unit": "nM"},
      {"measurement": "TGI", "setting": "[1]; HS 578T (Breast Cancer)", "result": ">1.00E−4"},
      {"measurement": "GI50", "setting": "[1]; HT29 (Colon Cancer)", "result": 1490, "unit": "nM"},
      {"measurement": "TGI", "setting": "[1]; HT29 (Colon Cancer)", "result": "3.51E−6"},
      {"measurement": "GI50", "setting": "[1]; IGROV1 (Ovarian Cancer)", "result": 1890, "unit": "nM"},
      {"measurement": "TGI", "setting": "[1]; IGROV1 (Ovarian Cancer)", "result": "3.83E−6"},
      {"measurement": "GI50", "setting": "[1]; K-562 (Leukemia)", "result": 1860, "unit": "nM"},
      {"measurement": "GI50", "setting": "[1]; KM12 (Colon Cancer)", "result": 3000, "unit": "nM"},
      {"measurement": "TGI", "setting": "[1]; KM12 (Colon Cancer)", "result": "1.24E−5"},
      {"measurement": "GI50", "setting": "[1]; LOX IMVI (Melanoma)", "result": 1670, "unit": "nM"},
      {"measurement": "TGI", "setting": "[1]; LOX IMVI (Melanoma)", "result": "3.21E−6"},
      {"measurement": "GI50", "setting": "[1]; M14 (Melanoma)", "result": 2360, "unit": "nM"},
      {"measurement": "TGI", "setting": "[1]; M14 (Melanoma)", "result": "7.23E−6"},
      {"measurement": "GI50", "setting": "[1]; MALME-3M (Melanoma)", "result": 1940, "unit": "nM"},
      {"measurement": "TGI", "setting": "[1]; MALME-3M (Melanoma)", "result": "5.04E−6"},
      {"measurement": "GI50", "setting": "[1]; MCF7 (Breast Cancer)", "result": 1370, "unit": "nM"},
      {"measurement": "TGI", "setting": "[1]; MCF7 (Breast Cancer)", "result": "3.28E−6"},
      {"measurement": "GI50", "setting": "[1]; [6]", "result": 2110, "unit": "nM"},
      {"measurement": "TGI", "setting": "[1]; [6]", "result": "4.59E−6"},
      {"measurement": "GI50", "setting": "[1]; MDA-MB-435 (Melanoma)", "result": 2740, "unit": "nM"},
      {"measurement": "TGI", "setting": "[1]; MDA-MB-435 (Melanoma)", "result": "1.31E−5"},
      {"measurement": "GI50", "setting": "[1]; MDA-MB-468 (Breast Cancer)", "result": 2010, "unit": "nM"},
      {"measurement": "TGI", "setting": "[1]; MDA-MB-468 (Breast Cancer)", "result": "4.18E−6"},
      {"measurement": "GI50", "setting": "[1]; MOLT-4 (Leukemia)", "result": 1680, "unit": "nM"},
      {"measurement": "TGI", "setting": "[1]; MOLT-4 (Leukemia)", "result": "2.83E−5"},
      {"measurement": "GI50", "setting": "[1]; [7]", "result": 2270, "unit": "nM"},
      {"measurement": "TGI", "setting": "[1]; [7]", "result": "9.08E−6"},
      {"measurement": "GI50", "setting": "[1]; [8]", "result": 2350, "unit": "nM"},
      {"measurement": "TGI", "setting": "[1]; [8]", "result": "5.70E−6"},
      {"measurement": "GI50", "setting": "[1]; [9]", "result": 3600, "unit": "nM"},
      {"measurement": "TGI", "setting": "[1]; [9]", "result": "2.89E−6"},
      {"measurement": "GI50", "setting": "[1]; [10]", "result": 2520, "unit": "nM"},
      {"measurement": "TGI", "setting": "[1]; [10]", "result": "5.58E−6"},
      {"measurement": "GI50", "setting": "[1]; [11]", "result": 1630, "unit": "nM"},
      {"measurement": "TGI", "setting": "[1]; [11]", "result": "3.06E−6"},
      {"measurement": "GI50", "setting": "[1]; NCI/ADR-RES (Ovarian Cancer)", "result": 2810, "unit": "nM"},
      {"measurement": "TGI", "setting": "[1]; NCI/ADR-RES (Ovarian Cancer)", "result": "1.72E−5"},
      {"measurement": "GI50", "setting": "[1]; OVCAR-3 (Ovarian Cancer)", "result": 1720, "unit": "nM"},
      {"measurement": "TGI", "setting": "[1]; OVCAR-3 (Ovarian Cancer)", "result": "3.30E−6"},
      {"measurement": "GI50", "setting": "[1]; OVCAR-4 (Ovarian Cancer)", "result": 2710, "unit": "nM"},
      {"measurement": "TGI", "setting": "[1]; OVCAR-4 (Ovarian Cancer)", "result": ">1.00E−4"},
      {"measurement": "GI50", "setting": "[1]; OVCAR-5 (Ovarian Cancer)", "result": 2730, "unit": "nM"},
      {"measurement": "TGI", "setting": "[1]; OVCAR-5 (Ovarian Cancer)", "result": "1.80E−5"},
      {"measurement": "GI50", "setting": "[1]; OVCAR-8 (Ovarian Cancer)", "result": 2790, "unit": "nM"},
      {"measurement": "TGI", "setting": "[1]; OVCAR-8 (Ovarian Cancer)", "result": "7.98E−6"},
      {"measurement": "GI50", "setting": "[1]; PC-3 (Prostate Cancer)", "result": 1880, "unit": "nM"},
      {"measurement": "TGI", "setting": "[1]; PC-3 (Prostate Cancer)", "result": "3.87E−6"},
      {"measurement": "GI50", "setting": "[1]; RXF 393 (Renal Cancer)", "result": 1450, "unit": "nM"},
      {"measurement": "TGI", "setting": "[1]; RXF 393 (Renal Cancer)", "result": "3.25E−6"},
      {"measurement": "GI50", "setting": "[1]; SF-268 (CNS Cancer)", "result": 3090, "unit": "nM"}
    ]}
  ]
}
